These results are taken from paper PMC1660542, “Structure-based discovery of inhibitors of the YycG histidine kinase: New chemical leads to combat Staphylococcus epidermidis infections” (BMC Microbiology, 2006).

≈ marks a conversion by molar mass, not a printed value. Where two headings read alike, the source gives them in different places.

Data set [1] has as its system S. epidermidis ATCC12228. Briefly: MIC assay (broth dilution in tubes, CLSI). It counts as cell-based, Staphylococcus epidermidis. The conditions noted are these: Staphylococcus epidermidis. The text has this:
(§1) Staphylococcus epidermidis ATCC12228 and RP62A strains were purchased from the American Type Culture Collection (ATCC, Manassas, USA). Staphylococcus aureus ATCC29213, Escherichia coli ATCC25922 and Pseudomonas aeruginosa ATCC27853 were kindly provided by Dr. Bijie Hu at Zhongshan Hospital (Shanghai, China). S. epidermidis strains se527, se886, se847, seG203, Streptococcus pyogenes strain 144, and Streptococcus mutans strain 128 were all clinical isolates from Zhongshan Hospital and Huashan Hospital (Shanghai, China). If not stated otherwise, S. epidermidis and S. aureus strains were grown at 37°C in tryptic soy broth (TSB, Oxoid) containing 0.25% glucose, E. coli and P. aeruginosa strains were grown at 37°C in Luria-Bertani (LB, Oxoid).
(§2) MIC assays for the antibacterial activities of the compounds were performed according to the broth micro-dilution (in tubes) method of the Clinical and Laboratory Standards Institute (CLSI) of America. The Minimal Bactericidal Concentration (MBC) was obtained by subculturing 100 μl from each negative (no visible bacterial growth) tube from the MIC assay, onto substance-free Mueller-Hinton agar plates. The plates were incubated at 37°C for 24 hours, and the MBC was defined as the lowest concentration of substance which produced subcultures growing no more than five colonies on each plate.

In data set [2] the test system is S. epidermidis RP62A. Briefly: MIC assay (broth dilution in tubes, CLSI). The class given is cell-based. The conditions noted are these: Staphylococcus epidermidis, read-out: Minimal inhibitory concentration (MIC).
Description: as §1, §2

A further data set deals with S. aureus ATCC29213. Kind of data set: MIC assay (broth dilution in tubes, CLSI). The conditions noted are these: for MIC: Staphylococcus aureus. The class given is cell-based, Staphylococcus aureus.
Description: as §1, §2

In a further data set the test system is S. pyogenes 144. Briefly: MIC assay (broth dilution in tubes, CLSI). It counts as cell-based, Streptococcus pyogenes. The conditions noted are these: for MIC: Streptococcus pyogenes, S. pyogenes 144, read-out: Minimal inhibitory concentration (MIC).
Description: as §1, §2

The test system of the next data set is S. mutans 128. Kind of data set: MIC assay (broth dilution in tubes, CLSI). It counts as cell-based, Streptococcus mutans. To be noted: for MIC: Streptococcus mutans, S. mutans 128, read-out: Minimal inhibitory concentration (MIC).
Description: as §1, §2

The test system of data set [3] is S. epidermidis ATCC12228. Briefly: Minimal bactericidal concentration (MBC) assay. The class given is cell-based. The conditions noted are these: Staphylococcus epidermidis. The protocol: as §2
For data set [4], the system named is S. epidermidis RP62A. Kind of data set: Minimal bactericidal concentration (MBC) assay. To be noted: Staphylococcus epidermidis; S. epidermidis RP62A; read-out: Minimal bactericidal concentration (MBC). The class given is cell-based. How it is done:
as §2

For data set [5], the target named is T1, YycG' protein (Staphylococcus epidermidis, UniProt Q8CU87).
T1 construct: of YycG (370aa to 610aa) was amplified by PCR; His-tag (pET28a) (N); made in house; host or cells: E. coli BL21 (pET28a, pETYycG')
Kind of data set: Inhibition of YycG' ATPase activity / autophosphorylation (Kinase-Glo Luminescent Kinase Assay). It counts as biochemical. To be noted: for inhibition at 50 µM: read-out: Inhibition of YycG' phosphorylation (decrease of ATPase activity). The protocol:
The inhibitory activities of the compounds for the ATPase activity of the YycG' protein was measured using the Kinase-Glo™ Luminescent Kinase Assay (Promega, Madison, USA). Briefly, 4 μg YycG' protein was pre-incubated with a series of dilution of compounds in the reaction buffer (40 mM Tris [pH 7.5], 20 mM MgCl2, and 0.1 mg/ml BSA), at 25°C for 30 min. Then 3 μM ATP was added for another incubation of 30 min at 25°C, and Kinase-Glo™ Reagent was added to detect the rest amount of ATP, as recorded from luminescence measurements (RLU). In parallel, theYycG' protein with no addition of compounds was used as the control. The rate of inhibiting protein phosphorylation (Rp) by the compounds was calculated from equation 1:
Rp=RLU(YycG^′+compound+ATP+Reagent)−RLU(YycG^′+ATP+Reagent)/RLU(ATP+Reagent)−RLU(YycG^′+ATP+Reagent)×100% (1) MathType@MTEF@5@5@+=feaafiart1ev1aaatCvAUfKttLearuWrP9MDH5MBPbIqV92AaeXatLxBI9gBaebbnrfifHhDYfgasaacH8akY=wiFfYdH8Gipec8Eeeu0xXdbba9frFj0=OqFfea0dXdd9vqai=hGuQ8kuc9pgc9s8qqaq=dirpe0xb9q8qiLsFr0=vr0=vr0dc8meaabaqaciaacaGaaeqabaqabeGadaaakeaacqqGsbGudaWgaaWcbaGaeeiCaahabeaakiabg2da9maalaaabaGaeeOuaiLaeeitaWKaeeyvauLaeiikaGIaeeywaKLaeeyEaKNaee4yamMafe4raCKbauaacqGHRaWkcqqGJbWycqqGVbWBcqqGTbqBcqqGWbaCcqqGVbWBcqqG1bqDcqqGUbGBcqqGKbazcqGHRaWkcqqGbbqqcqqGubavcqqGqbaucqGHRaWkcqqGsbGucqqGLbqzcqqGHbqycqqGNbWzcqqGLbqzcqqGUbGBcqqG0baDcqGGPaqkcqGHsislcqqGsbGucqqGmbatcqqGvbqvcqGGOaakcqqGzbqwcqqG5bqEcqqGJbWycuqGhbWrgaqbaiabgUcaRiabbgeabjabbsfaujabbcfaqjabgUcaRiabbkfasjabbwgaLjabbggaHjabbEgaNjabbwgaLjabb6gaUjabbsha0jabcMcaPaqaaiabbkfasjabbYeamjabbwfavjabcIcaOiabbgeabjabbsfaujabbcfaqjabgUcaRiabbkfasjabbwgaLjabbggaHjabbEgaNjabbwgaLjabb6gaUjabbsha0jabcMcaPiabgkHiTiabbkfasjabbYeamjabbwfavjabcIcaOiabbMfazjabbMha5jabbogaJjqbbEeahzaafaGaey4kaSIaeeyqaeKaeeivaqLaeeiuaaLaey4kaSIaeeOuaiLaeeyzauMaeeyyaeMaee4zaCMaeeyzauMaeeOBa4MaeeiDaqNaeiykaKcaaiabgEna0kabigdaXiabicdaWiabicdaWiabcwcaLiaaxMaacaWLjaWaaeWaaeaacqaIXaqmaiaawIcacaGLPaaaaaa@A46C@
IC50 (the concentration of inhibition of 50% YycG' protein autophosphorylation) was obtained by using the Origin v7.0 software (OriginLab, Northampton, USA).

The test system of a further data set is SrrB'. Kind of data set: Inhibition of SrrB' autophosphorylation (Kinase-Glo). The conditions noted are these: compound 50 μM, 4 μg protein, 3 μM ATP. It counts as biochemical, S. epidermidis.
Data set [6] can be described thus: Erythrocyte hemolysis assay.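 As to hemolysis: compounds tested at their MIC and at 4× MIC.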 The class given is cell-based, human. To be noted: human, 1 hour, 37°C. How it is done: (§3) Cytotoxicity of the antibacterial compounds on cultured Vero cell was measured by using the Cell Proliferation Kit I (MTT) (Roche, Indianapolis, USA) according to the manufacturer's protocol. Addition of DMSO (1%) in the medium produced a slight cytotoxicity on Vero cell, which could easily be corrected for. Each assay was performed in quadruplicate and repeated three times. The results were converted to percentage of the control (cells only treated with 1% DMSO) and CC50 (concentrations that produce a 50% cytotoxicity effect on Vero cell) was calculated by the Origin v7.0 software (OriginLab, Northampton, USA). Hemolytic activities of the compounds were determined by using healthy human erythrocytes. The erythrocytes were washed three times in sterile saline and resuspended to 5% prior to the assay. […] Cells without compound treatment and cells with 1% Triton-100 treatment were used as 0% and 100% hemolysis controls, respectively. The cell suspensions were incubated for 1 hour at 37°C and centrifuged at 1000×g for 10 min. Volumes of 100 μl supernatants were transferred to another sterile plate and hemoglobin release from the cells was determined at 570 nm. […] The hemolysis assays were repeated twice.

Data set [7] deals with healthy human erythrocytes. Kind of data set: Erythrocyte hemolysis assay.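 As to hemolysis: compounds tested at their MIC and at 4× MIC.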 The class given is cell-based. How it is done: as §3
The target in data set [8] is T1, YycG' protein. Kind of data set: Compound-YycG' protein binding assay (SPR, Biacore 3000). The conditions noted are these: SPR. The text has this:
The YycG' fragment containing the cytoplasmic signal domains (the HATPase_c and HisKA domain, see Figure 1A) of YycG (370aa to 610aa) was amplified by PCR (with the chromosomal DNA of S. epidermidis ATCC12228 as the template, and (5' […] 3') and (5' […] 3') as the primers. Subsequently, the fragment was digested with BamHI and XholI (TAKARA, Japan) and ligated into the corresponding sites of pET28a (Promega, Madison, USA) to obtain pETYycG'. The expressed YycG' protein was purified with the ProBond™ Purification System (Invitrogen, California, USA), according to the manufacturer's protocol.
The in vitro binding affinities of the inhibitor compounds to the YycG' protein was determined using surface plasmon resonance (SPR) biosensor technology on the dual flow cell Biacore 3000 instrument (Biacore AB, Uppsala, Sweden) with a similar method as described in our previous study. Immobilization of the YycG' protein to the hydrophilic carboxymethylated dextran matrix of the sensor chip CM5 (Biacore) was carried out by the standard primary amine coupling reaction. […] The equilibrium constants (KD) evaluating the protein-ligand binding affinity were determined by the steady state or the kinetic state affinity fitting model encoded in the Biacore analysis software.

Data set [9] can be described thus: Cytotoxicity on Vero cell (MTT, Cell Proliferation Kit I). The class given is cell-based, African Green-monkey. The conditions noted are these: African green monkey, highest concentration tested 200 μM. The protocol: as §3
A further data set deals with Vero cell. The data set is described as above. To be noted: highest concentration tested 200 μM. The class given is cell-based, African Green-monkey. The protocol: as §3
The mark [10] stands for this setting: ATCC12228, Table 2, as tested on S. epidermidis ATCC 12228, read-out: MICs.
The mark [11] stands for this setting: S. epidermidis ATCC12228 (non-biofilm-forming strain), read-out: Minimal inhibitory concentration (MIC).
The mark [12] stands for this setting: S. epidermidis RP62A (biofilm-forming strain).
Setting [13] is: S. aureus ATCC29213, read-out: Minimal inhibitory concentration (MIC).
Setting [14] is: 4 μg YycG' protein, 3 μM ATP, read-out: IC50 for YycG'.
[15] abbreviates: compound 50 μM, 4 μg protein, 3 μM ATP.
[16] abbreviates: erythrocytes (5% suspension), at 4 × MIC (number in parenthesis).
Setting [17] is: erythrocytes (5% suspension), at MIC for S. epidermidis ATCC12228.

T1 sequence (Q8CU87 370-610): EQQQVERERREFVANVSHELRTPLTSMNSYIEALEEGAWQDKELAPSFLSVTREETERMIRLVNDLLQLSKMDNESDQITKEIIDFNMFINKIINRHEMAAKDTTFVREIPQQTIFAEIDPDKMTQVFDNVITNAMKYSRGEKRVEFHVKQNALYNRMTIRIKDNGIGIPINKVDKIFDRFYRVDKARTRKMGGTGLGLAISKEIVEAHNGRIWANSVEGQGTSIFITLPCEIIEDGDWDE

For `CCc1ccccc1N=C1SC(=Cc2ccc(OCC(O)O)c(OC)c2)C(=O)N1c1ccccc1CC` [Compound 2], the MIC turned out to be 25 µM (≈ 13 µg/mL) in the data set with S. epidermidis ATCC12228 [1] (setting [10]); 25 µM (≈ 13 µg/mL) in the data set on S. epidermidis ATCC12228 [1] (setting [11]); 25 µM (≈ 13 µg/mL) with S. epidermidis RP62A [2] (setting [12]); 25 µM (≈ 13 µg/mL) in the data set with S. aureus ATCC29213 (setting [13]); 100 µM (≈ 51.9 µg/mL) with S. pyogenes 144; 100 µM (≈ 51.9 µg/mL) in the data set on S. mutans 128. The “Inhibitory effect against S. aureus” value in the data set with S. aureus ATCC29213 is recorded as “effective”. Besides, the “Inhibitory effect against Streptococcus pyogenes” value in the data set on S. pyogenes 144 is on record as “effective”. The “Inhibitory effect against Streptococcus mutans” value in the data set with S. mutans 128 is given as “effective”. Also, the MBC in the data set on S. epidermidis ATCC12228 [3] and in the data set on S. epidermidis RP62A [4] was 100 µM (≈ 51.9 µg/mL) each time. Moreover, the IC50 at YycG' protein [5] (setting [14]) is 29 µM. In addition, the inhibition at 50 µM at YycG' protein [5] (setting [15]) amounted to 61%. Also, the “Inhibition of SrrB' phosphorylation” value in the data set on SrrB' stood at 3%. Moreover, the hemolysis at 1 h is approximately 6% in [6] (setting [16]) and 2.3% in [6] (setting [17]). For the same compound, the Hemolysis in data set [7] (at 4 × MIC (number in parenthesis), 1 hour, 37°C) was determined as 6.1%. The Hemolytic activity in data set [7] (at the highest concentration (200 μM)) is reported as ~ 16 % of the zero control.
On to `CCOc1cccc(N2C(=O)/C(=C\c3ccc(OCc4ccc(F)cc4)c(Br)c3)C(=O)NC2=S)c1` [Compound 6], for which the MIC in the data set on S. epidermidis ATCC12228 [1] (ATCC12228, read-out: MICs) was 100 µM (≈ 55.5 µg/mL); in the data set with S. epidermidis ATCC12228 [1] (ATCC12228, read-out: Minimal inhibitory concentration (MIC)), 100 µM (≈ 55.5 µg/mL); in the data set with S. epidermidis RP62A [2] (RP62A), 100 µM (≈ 55.5 µg/mL); in the data set with S. aureus ATCC29213 (ATCC29213, read-out: Minimal inhibitory concentration (MIC)) it was more than 200 µM. The “Binding to the YycG' protein” value on YycG' protein [8] is on record as “only bound very poorly”. For the same compound, the half-inhibitory concentration (IC50) at YycG' protein [5] was more than 200 µM. Moreover, on YycG' protein [5], the inhibition at 50 µM is approximately 7%. Also, the CC50 in data set [9] was more than 200 µM. Further, the figures for the hemolysis at 1 h in data set [6] (at 4 × MIC (number in parenthesis)) and in data set [6] (at MIC for S. epidermidis ATCC12228) were 2.3% and 1.1%, respectively.
On to `CC(=O)Nc1ccccc1C(=O)Nc1ccc2cc3ccc(NC(=O)c4ccccc4NC(C)=O)cc3nc2c1` [Compound 3], for which the MIC with S. epidermidis ATCC12228 [1] (setting [10]) is 12.5 µM (≈ 6.64 µg/mL); in the data set with S. epidermidis ATCC12228 [1] (setting [11]), 12.5 µM (≈ 6.64 µg/mL); in the data set with S. epidermidis RP62A [2] (setting [12]), 25 µM (≈ 13.3 µg/mL); in the data set with S. aureus ATCC29213 (setting [13]), 100 µM (≈ 53.2 µg/mL); in the data set on S. pyogenes 144, 25 µM (≈ 13.3 µg/mL); in the data set with S. mutans 128, more than 200 µM. The “Inhibitory effect against S. aureus” value with S. aureus ATCC29213 was “inhibited the growth”. Also, the “Inhibitory effect against Streptococcus pyogenes” value in the data set on S. pyogenes 144 is recorded as “inhibited the growth”. The MBC in the data set on S. epidermidis ATCC12228 [3] came out at 50 µM (≈ 26.6 µg/mL); in the data set with S. epidermidis RP62A [4], 100 µM (≈ 53.2 µg/mL). Moreover, at YycG' protein [5] (setting [14]), the IC50 was determined as 15 µM. Further, the inhibition at 50 µM at YycG' protein [5] (setting [15]) was 70%. Further, in the data set with SrrB', the “Inhibition of SrrB' phosphorylation” value is given as 5%. The half-maximal cytotoxic concentration (CC50) in data set [9] (Vero cells) is less than 200 µM; in the data set with Vero cell it was 152 µM. In addition, the hemolysis at 1 h is 0.5% in data set [6] (setting [16]) and less than 0.1% in [6] (setting [17]).
